Measurements taken from paper PMC7486443, “Generation of Phenothiazine with Potent Anti-TLK1 Activity for Prostate Cancer Therapy” (iScience, 2020).

How the values were obtained:
Test in all cases: biochemical
Design in all cases: DiscoverX KINOMEscan scanMAX competition binding panel, single concentration, percent of control; remaining binding: dose or concentration left out as unconfirmed
Details in all cases: KINOMEscan binding, percent of control; read-out: Table S4_SCANMAX REPORT - related to Fig. 1 / Percent Control
[1] = target: T1, TYK2(JH2domain-pseudokinase) (Homo sapiens, UniProt P29597)
T1 construct: JH2domain-pseudokinase

WNK2 = WNK2 (Homo sapiens, UniProt Q9Y3S1)
MLK2 = target: T2, MLK2 (Homo sapiens, UniProt Q02779)
T2 construct: gene MAP3K10

PIK3CA(M1043I) = PIK3CA(M1043I) (Homo sapiens, UniProt P42336, M1043I)
MELK = MELK (Homo sapiens, UniProt Q14680)
STK16 = STK16 (Homo sapiens, UniProt O75716)
FLT3(ITD,F691L) = FLT3(ITD,F691L) (Homo sapiens, UniProt P36888, F691L/ITD)
LOK = target: T3, LOK (Homo sapiens, UniProt O94804)
T3 construct: gene STK10

PAK4 = PAK4 (Homo sapiens, UniProt O96013)
PKNB(M.tuberculosis) = PKNB(M.tuberculosis) (Mycobacterium tuberculosis, UniProt P9WI81)
FLT3 = FLT3 (Homo sapiens, UniProt P36888)
WNK3 = WNK3 (Homo sapiens, UniProt Q9BYP7)
ICK = target: T4, ICK (Homo sapiens, UniProt Q9UPZ9)
T4 construct: gene CILK1

TIE2 = target: T5, TIE2 (Homo sapiens, UniProt Q02763)
T5 construct: gene TEK

AKT3 = AKT3 (Homo sapiens, UniProt Q9Y243)
TLK1 = TLK1 (Homo sapiens, UniProt Q9UKI8)
BRAF(V600E) = BRAF(V600E) (Homo sapiens, UniProt P15056, V600E)
PLK4 = PLK4 (Homo sapiens, UniProt O00444)

Sequence of PKNB(M.tuberculosis) (P9WI81 whole entry): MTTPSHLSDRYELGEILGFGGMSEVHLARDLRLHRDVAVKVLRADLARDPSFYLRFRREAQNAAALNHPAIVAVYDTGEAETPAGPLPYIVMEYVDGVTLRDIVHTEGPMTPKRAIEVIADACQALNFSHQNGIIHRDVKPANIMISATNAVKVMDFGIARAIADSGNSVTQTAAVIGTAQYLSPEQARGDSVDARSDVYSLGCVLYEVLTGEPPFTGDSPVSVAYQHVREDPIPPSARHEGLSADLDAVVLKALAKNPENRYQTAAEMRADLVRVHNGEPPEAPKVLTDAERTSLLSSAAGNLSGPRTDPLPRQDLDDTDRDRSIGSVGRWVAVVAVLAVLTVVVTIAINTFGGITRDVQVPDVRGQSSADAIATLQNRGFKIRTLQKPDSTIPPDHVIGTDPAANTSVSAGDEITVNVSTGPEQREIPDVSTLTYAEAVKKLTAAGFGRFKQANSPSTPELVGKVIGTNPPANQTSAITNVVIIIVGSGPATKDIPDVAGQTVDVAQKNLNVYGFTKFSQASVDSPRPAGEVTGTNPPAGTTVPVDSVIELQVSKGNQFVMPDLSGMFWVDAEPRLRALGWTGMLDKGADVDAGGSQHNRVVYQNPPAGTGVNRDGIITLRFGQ
Sequence of PAK4 (O96013 whole entry): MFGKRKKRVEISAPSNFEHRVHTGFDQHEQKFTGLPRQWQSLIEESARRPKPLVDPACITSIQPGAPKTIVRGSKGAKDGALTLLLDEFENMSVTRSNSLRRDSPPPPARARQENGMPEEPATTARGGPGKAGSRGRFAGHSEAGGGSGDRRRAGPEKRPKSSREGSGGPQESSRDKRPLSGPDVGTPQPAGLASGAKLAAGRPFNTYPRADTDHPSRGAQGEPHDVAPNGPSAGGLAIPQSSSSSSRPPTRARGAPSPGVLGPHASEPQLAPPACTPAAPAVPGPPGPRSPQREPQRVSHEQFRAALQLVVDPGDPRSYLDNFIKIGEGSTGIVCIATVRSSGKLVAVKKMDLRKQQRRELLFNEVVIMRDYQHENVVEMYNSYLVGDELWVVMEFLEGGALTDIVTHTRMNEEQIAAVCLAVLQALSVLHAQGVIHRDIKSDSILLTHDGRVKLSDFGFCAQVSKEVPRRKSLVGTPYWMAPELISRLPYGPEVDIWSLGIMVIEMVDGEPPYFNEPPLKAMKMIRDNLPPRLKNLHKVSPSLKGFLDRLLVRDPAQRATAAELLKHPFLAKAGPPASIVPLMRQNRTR
Sequence of FLT3 (P36888 whole entry): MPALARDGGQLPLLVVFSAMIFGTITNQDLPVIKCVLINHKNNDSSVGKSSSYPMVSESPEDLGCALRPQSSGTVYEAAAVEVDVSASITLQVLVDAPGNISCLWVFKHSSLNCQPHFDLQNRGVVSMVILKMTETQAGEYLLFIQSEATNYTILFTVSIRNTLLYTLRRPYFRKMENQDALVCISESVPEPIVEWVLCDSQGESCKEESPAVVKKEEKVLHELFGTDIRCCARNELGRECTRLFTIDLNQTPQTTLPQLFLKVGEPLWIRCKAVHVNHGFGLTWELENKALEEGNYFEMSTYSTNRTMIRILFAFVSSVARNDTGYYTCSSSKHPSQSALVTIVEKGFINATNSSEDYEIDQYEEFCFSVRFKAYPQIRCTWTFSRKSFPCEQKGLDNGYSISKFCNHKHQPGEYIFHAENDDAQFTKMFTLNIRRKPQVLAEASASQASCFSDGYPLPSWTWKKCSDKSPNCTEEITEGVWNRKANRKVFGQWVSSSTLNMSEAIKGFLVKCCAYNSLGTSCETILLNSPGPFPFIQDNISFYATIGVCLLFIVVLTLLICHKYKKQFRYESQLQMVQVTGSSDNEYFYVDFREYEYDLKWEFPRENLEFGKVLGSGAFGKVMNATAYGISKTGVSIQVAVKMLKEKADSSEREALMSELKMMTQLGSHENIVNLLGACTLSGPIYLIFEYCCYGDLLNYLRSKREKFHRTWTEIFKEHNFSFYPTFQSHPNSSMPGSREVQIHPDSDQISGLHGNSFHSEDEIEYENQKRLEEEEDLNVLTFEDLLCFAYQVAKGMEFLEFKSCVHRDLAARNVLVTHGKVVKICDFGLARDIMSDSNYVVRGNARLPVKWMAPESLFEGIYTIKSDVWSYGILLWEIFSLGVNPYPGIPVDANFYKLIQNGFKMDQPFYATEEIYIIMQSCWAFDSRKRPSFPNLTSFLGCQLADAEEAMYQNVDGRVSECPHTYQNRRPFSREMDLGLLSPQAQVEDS
T4 sequence (Q9UPZ9 whole entry): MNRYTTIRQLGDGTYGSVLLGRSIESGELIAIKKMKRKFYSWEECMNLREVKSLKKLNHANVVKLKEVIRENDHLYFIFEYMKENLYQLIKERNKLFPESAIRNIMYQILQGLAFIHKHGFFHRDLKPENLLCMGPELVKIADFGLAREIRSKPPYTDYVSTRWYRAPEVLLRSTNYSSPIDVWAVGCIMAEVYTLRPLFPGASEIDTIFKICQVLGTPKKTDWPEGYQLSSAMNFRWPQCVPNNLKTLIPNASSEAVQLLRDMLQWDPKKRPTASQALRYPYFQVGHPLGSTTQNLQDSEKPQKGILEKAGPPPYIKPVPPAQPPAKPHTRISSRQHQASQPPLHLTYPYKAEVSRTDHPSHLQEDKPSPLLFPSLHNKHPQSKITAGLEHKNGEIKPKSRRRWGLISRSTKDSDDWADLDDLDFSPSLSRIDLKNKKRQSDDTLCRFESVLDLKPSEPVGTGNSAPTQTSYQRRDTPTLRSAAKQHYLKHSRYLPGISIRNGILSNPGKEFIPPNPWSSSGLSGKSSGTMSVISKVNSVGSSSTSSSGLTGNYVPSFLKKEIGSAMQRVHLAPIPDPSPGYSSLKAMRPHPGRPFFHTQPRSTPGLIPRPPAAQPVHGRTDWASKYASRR
Sequence of STK16 (O75716 whole entry): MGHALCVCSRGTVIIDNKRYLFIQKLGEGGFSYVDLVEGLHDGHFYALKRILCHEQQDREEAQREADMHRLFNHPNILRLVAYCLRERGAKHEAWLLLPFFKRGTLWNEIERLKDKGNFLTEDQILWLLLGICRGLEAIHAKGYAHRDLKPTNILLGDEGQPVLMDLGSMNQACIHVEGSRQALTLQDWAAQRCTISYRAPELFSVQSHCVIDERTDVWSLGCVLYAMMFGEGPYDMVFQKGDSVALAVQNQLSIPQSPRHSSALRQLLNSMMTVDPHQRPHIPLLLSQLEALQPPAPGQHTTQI
T1 sequence (P29597 whole entry): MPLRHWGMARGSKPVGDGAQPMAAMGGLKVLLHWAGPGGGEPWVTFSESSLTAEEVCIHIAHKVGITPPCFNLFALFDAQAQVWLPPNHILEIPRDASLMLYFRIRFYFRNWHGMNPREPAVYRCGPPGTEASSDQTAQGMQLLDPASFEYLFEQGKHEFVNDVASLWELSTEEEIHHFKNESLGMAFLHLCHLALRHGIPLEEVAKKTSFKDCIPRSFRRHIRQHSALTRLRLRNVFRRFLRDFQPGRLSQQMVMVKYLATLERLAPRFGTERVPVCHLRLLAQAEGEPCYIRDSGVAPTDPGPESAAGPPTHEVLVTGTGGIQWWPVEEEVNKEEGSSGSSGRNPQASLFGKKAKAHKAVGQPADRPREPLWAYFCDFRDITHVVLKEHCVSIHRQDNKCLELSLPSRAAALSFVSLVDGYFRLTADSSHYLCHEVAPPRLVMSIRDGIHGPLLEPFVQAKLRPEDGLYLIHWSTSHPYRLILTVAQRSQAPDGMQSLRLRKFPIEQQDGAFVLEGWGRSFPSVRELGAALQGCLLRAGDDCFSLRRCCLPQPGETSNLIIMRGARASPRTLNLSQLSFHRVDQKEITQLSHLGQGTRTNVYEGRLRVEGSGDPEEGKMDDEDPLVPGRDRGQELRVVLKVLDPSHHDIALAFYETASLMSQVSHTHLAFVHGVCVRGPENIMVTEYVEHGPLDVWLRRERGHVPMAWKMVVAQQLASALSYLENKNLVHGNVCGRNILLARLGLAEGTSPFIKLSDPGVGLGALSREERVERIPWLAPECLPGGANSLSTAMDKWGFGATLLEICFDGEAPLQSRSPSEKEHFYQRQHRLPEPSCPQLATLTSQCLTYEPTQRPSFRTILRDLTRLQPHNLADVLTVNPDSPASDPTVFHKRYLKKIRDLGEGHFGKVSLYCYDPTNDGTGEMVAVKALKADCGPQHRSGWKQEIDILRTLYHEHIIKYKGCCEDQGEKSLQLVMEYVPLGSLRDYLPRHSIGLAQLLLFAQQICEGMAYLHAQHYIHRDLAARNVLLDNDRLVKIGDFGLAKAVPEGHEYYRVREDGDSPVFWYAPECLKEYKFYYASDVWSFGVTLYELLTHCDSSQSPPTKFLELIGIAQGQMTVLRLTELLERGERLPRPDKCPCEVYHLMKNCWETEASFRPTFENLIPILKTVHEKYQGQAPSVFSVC
Sequence of MELK (Q14680 whole entry): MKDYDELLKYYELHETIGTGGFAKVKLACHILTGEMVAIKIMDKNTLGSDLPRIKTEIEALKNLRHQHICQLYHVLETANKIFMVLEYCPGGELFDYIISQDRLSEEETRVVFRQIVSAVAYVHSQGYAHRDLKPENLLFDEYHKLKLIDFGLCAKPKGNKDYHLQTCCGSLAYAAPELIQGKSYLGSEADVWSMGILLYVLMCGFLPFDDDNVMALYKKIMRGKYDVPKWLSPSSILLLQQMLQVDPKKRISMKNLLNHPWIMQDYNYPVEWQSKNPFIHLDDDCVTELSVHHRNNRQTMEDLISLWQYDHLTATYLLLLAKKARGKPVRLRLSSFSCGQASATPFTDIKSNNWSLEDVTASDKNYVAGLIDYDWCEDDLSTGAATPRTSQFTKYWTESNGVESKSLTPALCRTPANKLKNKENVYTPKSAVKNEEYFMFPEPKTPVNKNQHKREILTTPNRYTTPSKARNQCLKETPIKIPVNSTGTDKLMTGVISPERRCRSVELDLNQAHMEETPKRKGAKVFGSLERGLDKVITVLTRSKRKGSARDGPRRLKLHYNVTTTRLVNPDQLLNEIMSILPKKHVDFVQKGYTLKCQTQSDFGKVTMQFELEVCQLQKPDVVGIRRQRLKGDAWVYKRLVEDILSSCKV

Q: How did the remaining binding [1] turn out when `c1ccc2c(c1)Sc1ccccc1N2CCN1CCOCC1` [J54] was run?
A: 100%

Q: And the remaining binding (WNK2)?
A: 100%

Q: And the remaining binding (MLK2)?
A: 97%

Q: And the remaining binding (PIK3CA(M1043I))?
A: 98%

Q: What about the remaining binding (MELK) of the same molecule?
A: 84%

Q: And the remaining binding (STK16)?
A: 99%

Q: What about the remaining binding (FLT3(ITD,F691L)) of the same molecule?
A: 65%

Q: And the remaining binding (LOK)?
A: 100%

Q: What about the remaining binding (PAK4) of the same molecule?
A: 99%

Q: What about the remaining binding (PKNB(M.tuberculosis)) of the same molecule?
A: 87%

Q: And the remaining binding (FLT3)?
A: 100%

Q: And the remaining binding (WNK3)?
A: 98%

Q: And the remaining binding (ICK)?
A: 100%

Q: What about the remaining binding (TIE2) of the same molecule?
A: 76%

Q: And the remaining binding (AKT3)?
A: 84%

Q: And the remaining binding (TLK1)?
A: 16%

Q: And the remaining binding (BRAF(V600E))?
A: 100%

Q: And the remaining binding (PLK4)?
A: 85%
